The values that follow are results of earlier work, collected in patent US20040248850A1, “Compounds for the treatment of HIV infection” (Kemia, Inc., priority 2003, published 2004).

In the series the test system is Human Immunodeficiency Virus Type 1. As to conditions: in cell culture.

One may read the EC50 as the concentration at which the effect is half-maximal. As to enfuvirtide, the EC50 is 1 ng/mL.
